Measured values as given in the supplement of paper PMC10721915.
± gives the standard deviation of the averaged measurements.

Experiments:
Assay in all cases: relative cell growth vs untreated control (GI, NCI-DTP normalisation with time-zero) (fraction of control growth); higher = more growth / less inhibition
Conditions in all cases: treatment time: 120 h
BXPC3 = system: BXPC3
Experimental: (§1)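 Cancer cell lines in 96-well plates were treated 48 h after seeding with M4076 (ATM inhibitor) and berzosertib (ATR inhibitor), alone or mixed, in 4-fold dilutions for 120 h. Protein was read by sulforhodamine B staining, background-subtracted and normalised NCI-DTP style to untreated control growth. Rows with one concentration equal to 0 are monotherapy.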

HEPG2 = system: HEPG2
Experimental: as §1

HT1080 = system: HT1080
Experimental: as §1

MDAMB435 = system: MDAMB435
Experimental: as §1

MV411 = system: MV411
Experimental: as §1

RAMOS = system: RAMOS
Experimental: as §1

SW620 = system: SW620
Experimental: as §1

COc1cc2ncc3c(c2cc1-c1cn(C)nc1C)n(-c1c(F)cncc1OC)c(=O)n3C [M4076] + CNCc1ccc(-c2cc(-c3nc(-c4ccc(S(=O)(=O)C(C)C)cc4)cnc3N)on2)cc1 [berzosertib]
relative cell growth
Conditions | BXPC3 | HEPG2 | HT1080 | MDAMB435 | MV411 | RAMOS | SW620
concentration of first compound 0.0195 µM, concentration of partner 0 M | 1.17 ± 0.22 | 1.41 ± 0.32 | 1.1 ± 0.02 | 1.09 ± 0.14 | 1.23 ± 0.16 | 1.04 ± 0.031 | 1.08 ± 0.14
concentration of first compound 0.0195 µM, concentration of partner 0.2 µM | 0.548 | 0.0154 | 0.762 | 1.01 | 1.18 | 1.14 | 0.95
concentration of first compound 0.0781 µM, concentration of partner 0 M | 1.25 ± 0.24 | 1.4 ± 0.32 | 0.574 ± 0.01 | 1.09 ± 0.14 | 1.28 ± 0.17 | 1.12 ± 0.034 | 1.09 ± 0.14
concentration of first compound 0.0781 µM, concentration of partner 0.2 µM | 0.643 | 0.000629 | 0.753 | 1.05 | 1.09 | 1.17 | 0.848
concentration of first compound 0.313 µM, concentration of partner 0 M | 1.17 ± 0.22 | 1.23 ± 0.28 | 0.481 ± 0.0086 | 1.04 ± 0.13 | 1.24 ± 0.16 | 1.01 ± 0.03 | 1.01 ± 0.13
concentration of first compound 0.313 µM, concentration of partner 0.2 µM | 0.481 | -0.027 | -0.0371 | 0.622 | 0.887 | 1.12 | 0.449
concentration of first compound 1 µM, concentration of partner 0 M | 0.952 | 0.829 | 0.54 | 0.988 | 0.903 | 0.888 | 0.958
concentration of first compound 1 µM, concentration of partner 0.0195 µM | 0.987 | 0.596 | 0.752 | 1.01 | 1.22 | 0.918 | 0.922
concentration of first compound 1 µM, concentration of partner 0.0781 µM | 0.78 | 0.0729 | 0.155 | 0.701 | 1.18 | 0.945 | 0.646
concentration of first compound 1 µM, concentration of partner 0.313 µM | 0.015 | -0.0203 | -0.168 | 0.14 | 0.312 | 0.751 | 0.168
concentration of first compound 1 µM, concentration of partner 1.25 µM | -0.096 | -0.023 | -0.178 | -0.00922 | -0.0158 | 0.0625 | 0.0263
concentration of first compound 1 µM, concentration of partner 5 µM | -0.0967 | -0.0325 | -0.234 | -0.0254 | -0.0221 | 0.0153 | -0.014
concentration of first compound 1.25 µM, concentration of partner 0 M | 1.08 ± 0.21 | 1.16 ± 0.26 | 0.332 ± 0.0059 | 1.03 ± 0.13 | 1.09 ± 0.14 | 0.914 ± 0.028 | 0.96 ± 0.12
concentration of first compound 1.25 µM, concentration of partner 0.2 µM | 0.321 | -0.0218 | -0.114 | 0.411 | 0.746 | 1.09 | 0.293
concentration of first compound 5 µM, concentration of partner 0 M | 0.894 ± 0.17 | 0.843 ± 0.19 | 0.478 ± 0.0086 | 0.92 ± 0.12 | 0.708 ± 0.092 | 0.778 ± 0.023 | 0.916 ± 0.12
concentration of first compound 5 µM, concentration of partner 0.2 µM | 0.228 | -0.0276 | -0.101 | 0.185 | 0.603 | 0.915 | 0.269

CNCc1ccc(-c2cc(-c3nc(-c4ccc(S(=O)(=O)C(C)C)cc4)cnc3N)on2)cc1 [berzosertib] + COc1cc2ncc3c(c2cc1-c1cn(C)nc1C)n(-c1c(F)cncc1OC)c(=O)n3C [M4076]
relative cell growth, concentration of partner 0 M
Conditions | BXPC3 | HEPG2 | HT1080 | MDAMB435 | MV411 | RAMOS | SW620
concentration of first compound 0.0195 µM | 1.18 ± 0.22 | 1.09 ± 0.22 | 2.08 ± 0.29 | 1.07 ± 0.13 | 1.25 ± 0.16 | 1.1 ± 0.036 | 1.1 ± 0.15
concentration of first compound 0.0781 µM | 1.14 ± 0.21 | 0.33 ± 0.067 | 2.13 ± 0.3 | 1.06 ± 0.13 | 1.32 ± 0.17 | 1.11 ± 0.036 | 1.07 ± 0.15
concentration of first compound 0.2 µM | 0.588 | 0.0562 | 0.626 | 0.893 | 0.778 | 1.16 | 0.795
concentration of first compound 0.313 µM | 0.34 ± 0.063 | 0.0114 ± 0.0023 | 0.0933 ± 0.013 | 0.656 ± 0.082 | 0.429 ± 0.054 | 1.05 ± 0.034 | 0.494 ± 0.067
concentration of first compound 1.25 µM | -0.112 ± 0.021 | -0.033 ± 0.0067 | -0.162 ± 0.023 | -0.0138 ± 0.0017 | -0.0241 ± 0.003 | 0.322 ± 0.011 | 0.087 ± 0.012
concentration of first compound 5 µM | -0.0824 ± 0.015 | -0.0501 ± 0.01 | -0.228 ± 0.032 | -0.0273 ± 0.0034 | -0.0294 ± 0.0037 | 0.103 ± 0.0034 | -0.01 ± 0.0014
